Legend:
[1] = system: Cotton plants of the cultivar "Carmen"; assay: Leaf drop effect (defoliation) on cotton plants after spray application; type: in vivo; conditions: dose 35 g of a.i./ha, 1 l/ha Actirob B added, scale 0-100%
Procedure: (§1) A water application rate of 300 l/ha was initially charged. The components herbicide and adjuvant were then added with stirring at the application rates and in the manner stated in table 1, such that a homogeneous spray liquor was formed. Here, the active ingredients were employed as suspension concentrates. The adjuvant used was ®Actirob B (Novance).
(§2) Cotton seeds of the cultivar “Carmen” were sown at a depth of 1 cm and cultivated in a climatized chamber (16 h of light, temperature during the day: 26° C., at night: 20° C.) until they had reached the 8-10 leaf stage.
The plants were treated on a laboratory spray track with spray liquors of thidiazuron and thidiazuron with combination partners. The water application rate for the spray application was 300 l/ha. […]
2 weeks after the application, the leaf drop effect was evaluated according to a scale from 0 to 100%: • 0% =no noticeable effect compared to untreated plants • 100% =all leaves have dropped.
One week after the application, the leaf drop effect was evaluated according to a scale from 0 to 100%: • 0% =no noticeable effect compared to untreated plants • 100% =all leaves have dropped.
One week after the application, the leaf drop effect was evaluated according to a scale from 0 to 100%: • 0%=no noticeable effect compared to untreated plants • 100%=all leaves have dropped.

[2] = system: Cotton plants of the cultivar "Carmen"; assay: Regrowth of cotton plants, by weighing the newly formed leaf material; type: in vivo; conditions: dose 35 g of a.i./ha, 1 l/ha Actirob B added, weight of newly formed leaf material
Procedure: as §1, §2
The plants were treated on a laboratory spray track with spray liquors of thidiazuron and thidiazuron with combination partners. The water application rate for the spray application was 300 l/ha. After the treatment, the plants were returned to the climatized chamber.
4 weeks after the application, the regrowth of the plants was assessed by weighing the newly formed leaf material.

O=C(Nc1ccccc1)Nc1cnns1 [TDZ, thidiazuron]
Leaf drop [%] 2 weeks after application ([1]; Table 1, 100% = all leaves have dropped): 35%
Leaf drop [%] 2 weeks after application ([1]; Table 3): 91%
Regrowth [g] 4 weeks after application ([2]; Table 1): 3.3 g
Regrowth [g] 4 weeks after application ([2]; Table 3): 2.4 g
